Results reported in paper PMC4669789, “Selective inhibition of HDAC8 decreases neuroblastoma growth in vitro and in vivo and enhances retinoic acid-mediated differentiation” (Cell Death & Disease, 2015).

Key:
[1] = system: BE(2)-C cells; experiment: Longer-term colony assay; format: cell-based, human; settings: ATRA 10 μM, 18 days, empty vector control cells
Procedure: In six-well plates, 500 cells were seeded and treated as indicated. Viable colonies were stained after a minimum of 10 days with crystal violet. For quantification, the mean intensity of each well of the 8-bit binary picture was measured with ImageJ software (U. S. National Institutes of Health, Bethesda, MD, USA; http://imagej.nih.gov/ij/).

[2] = system: BE(2)-C cells; experiment: Western blot of histone 4, α-tubulin and SMC3 acetylation; format: cell-based, human; settings: working concentrations: 40 μM Cpd2, 4 μM PCI-34051 and PCI-48000
Procedure: Western blot analysis was performed as described previously.[15] For detection of phosphoproteins, PhosStop (Roche, Penzberg, Germany) was added to the lysis buffer.

[3] = system: neuroblastoma cell culture; experiment: Intracellular whole lysine acetylation via FACS; format: cell-based, human
Procedure: Cells were collected, washed with PBS and fixed with 2% paraformaldehyde for 15 min at room temperature (RT). Cells were permeabilized by incubation with 50 μg/ml digitonin for 6 min at RT. Cells were incubated with primary antibody overnight at 4 °C. After staining with Cy3-conjugated anti-rabbit antibody, cells were analyzed by FACS using CellQuest software (BD Biosciences, San Jose, CA, USA). The following primary antibodies were used: anti-acetylated lysine (polyclonal; Cell Signaling) and anti-neurofilament-M (clone EP2460; Epitomics, Burlingame, CA, USA).

[4] = system: NMRI Foxn1 nude mice; settings: mouse, in vivo; cited from earlier work
[5] = system: nude mice; experiment: Tolerability during xenograft and long-term treatment (body weight, clinical signs); settings: mouse, in vivo
From the text: Next, we determined the in vivo efficacy of HDAC8-selective inhibition in neuroblastoma xenograft mouse models. […] One week after tumor cell injection, mice established a palpable tumor mass and the animals were then randomly assigned to treatment and control cohorts.

[6] = system: PBMCs; experiment: Whole lysine acetylation in PBMC after intraperitoneal administration (FACS); format: in vivo, mouse; settings: 150 mg/kg/d; solvent 32.1
Procedure: Both inhibitors were intraperitoneally injected into NMRI Foxn1 nude mice in increasing doses from 40 up to 400 mg/kg per day for 2 × 5 days. Each dose was tested in a cohort of three animals. Resulting MTDs were validated within cohorts of eight animals for each inhibitor. […] As a reference, the blood of 12 untreated NMRI Foxn1 nude mice was analyzed. […] Vorinostat was used as a control for unselective HDAC inhibition.
Whole blood (100 μl) was collected from the femoral vein of untreated athymic NMRI nude mice (HsdCpb:NMRI-Foxn1^nu; Harlan Laboratories Inc.), and respective animals were killed 2 h after intraperitoneal injection of substances. For the analysis of whole acetylation levels, mice were killed at half-life time of the inhibitors. Whole blood with heparin was added to RBC lysis buffer (diluted 1 : 10) (BioLegend, San Diego, CA, USA) at a ratio of 1 : 4. Next, red blood cell lysis was performed according to the manufacturer's instructions. PBMCs were lysed in SDS lysis buffer for western blot or processed for FACS analysis.

In the case of CC1=C(/C=C/C(C)=C/C=C/C(C)=C/C(=O)O)C(C)(C)CCC1 [ATRA, all-trans retinoic acid], the colony formation [1] is reported as “efficiently reduced the ability of empty vector control cells to form colonies”.
In the case of COc1ccc(Cn2ccc3ccc(C(=O)NO)cc32)cc1 [PCI-34051], the “SMC3 acetylation (HDAC8 substrate)” value [2] is reported as “increase in acetylation level”, the “histone 4 acetylation (HDAC1-3 substrate)” value [2] is reported as “absence of HDAC1-3 substrate acetylation” and the “tubulin acetylation (HDAC6 substrate)” value [2] is reported as “absence of HDAC6 substrate acetylation”.
With CC(/C=C/C(=O)NO)=C\[C@@H](C)C(=O)c1ccc(N(C)C)cc1 [TSA, trichostatin A] the “whole acetyl-lysine mean fluorescent values (Blank-corrected)” value ([3]; 75nM, solvent 34.4, second experiment) was 92.7, the “whole acetyl-lysine mean fluorescent values (Blank-corrected)” value ([3]; 150nM, solvent 24.7, IMR-32 cells, 24 h per Figure 1c) was 115.1 and the global lysine acetylation ([3]; pan-HDAC inhibitor control, compared with HDAC8 inhibitors) was “much stronger induction of global lysine acetylation”.
For O=C(CCCCCCC(=O)Nc1ccccc1)NO [vorinostat, suberoylanilide hydroxamic acid], the MTD [4] is given as 150 mg/kg per day, the “tolerability at the applied dose” value [5] is given as “clear signs of toxicity, such as diarrhea and weight loss” and the “whole acetyl-lysine mean fluorescent values (Blank-corrected), PBMCs” value [6] is given as 54.0.
